Type in all cases: cell-based
Data set [1] has as its system A549 (human lung carcinoma) cell line. Description: in vitro cytotoxicity, MTT assay, A549 cell line. To be noted: 24 h exposure, read-out: IC50 Values against A549. On the procedure: (§1) The cells were seeded at 4×10^3 cells/well in 100 μL DMEM (Dulbecco's Modified Eagle's Medium) containing 10%. FBS (Fetal Bovine Serum) in 96-wells tissue culture plate and incubated for 72 h at 37° C., 5% CO2 in air and 90% relative humidity in CO2 incubator. […] The medium of wells was discarded and 100 μL DMEM containing MTT (3-(4,5-Dimethylthiazol-2-Yl)-2,5-Diphenyltetrazolium Bromide) (5 mg/mL) was added to the wells and incubated in CO2 incubator at 37° C. in dark for 4 h. After incubation, a purple colored formazan (artificial chromogenic dye, product of the reduction of water insoluble tetrazolium salts e.g., MMT by dehydrogenases and reductases) in the cells is produced and appeared as dark crystals in the bottom of the wells. The medium of culture was discarded from each well carefully to avoid disruption of monolayer and 100 μL of Dimethylsufoxide (DMSO) was added in each well. The solution was thoroughly mixed in the wells to dissolve the formazan crystals which ultimately result into a purple solution. The absorbance of the 96-wells plate was taken at 570 nm with Labsystems Multiskan EX-Enzyme-linked immunosorbent assay (EX-ELISA) reader against a reagent blank.
(§2) The in vitro cytotoxicity tests were evaluated for the gold(I) precursor, labeled as (0) and two synthesized complexes labeled as (1) and (2)against three human cancer cell lines, MCF7, HeLa and A549 using MTT assay.

The test system of data set [2] is HeLa (human cervical cancer) cell line. As to the kind of experiment: in vitro cytotoxicity, MTT assay, HeLa cell line. To be noted: for IC50: HeLa cell line, 24 h exposure, read-out: IC50 Values against HeLa; for IC50 / percent viability of HeLa: MTT; for percent viability of HeLa: 24 h; for cytotoxic effects on HeLa cell line compared with Auranofin: 50 μg/mL concentration. As for the experimental part:
as §1, §2
(Tetrazolium assays rely on reduction of a dye to a coloured formazan, in cell work by metabolically active cells.)

Data set [3] relates to MCF7 (human breast cancer) cell line. As to the kind of experiment: in vitro cytotoxicity, MTT assay, MCF7 cell line. To be noted: 24 h exposure, read-out: IC50 Values against MCF7. As for the experimental part:
Metal precursor and two synthesized compound (1)and compound (2) were evaluated for their in-vitro cytotoxic activity against MCF7 (human breast cancer), HeLa (human cervical cancer) and A549 (human lung carcinoma) cell lines.
The cells were seeded at 4×10^3 cells/well in 100 μL DMEM (Dulbecco's Modified Eagle's Medium) containing 10%. FBS (Fetal Bovine Serum) in 96-wells tissue culture plate and incubated for 72 h at 37° C., 5% CO2 in air and 90% relative humidity in CO2 incubator. After incubation, 100 μL of complex (0),(1)and (2) (50, 25, 12.5, 6.25 and 3.12 μg/mL), prepared in DMEM, was added to cells and the cultures were incubated for 24 h. The medium of wells was discarded and 100 μL DMEM containing MTT (3-(4,5-Dimethylthiazol-2-Yl)-2,5-Diphenyltetrazolium Bromide) (5 mg/mL) was added to the wells and incubated in CO2 incubator at 37° C. in dark for 4 h. After incubation, a purple colored formazan (artificial chromogenic dye, product of the reduction of water insoluble tetrazolium salts e.g., MMT by dehydrogenases and reductases) in the cells is produced and appeared as dark crystals in the bottom of the wells. The medium of culture was discarded from each well carefully to avoid disruption of monolayer and 100 μL of Dimethylsufoxide (DMSO) was added in each well. The solution was thoroughly mixed in the wells to dissolve the formazan crystals which ultimately result into a purple solution. The absorbance of the 96-wells plate was taken at 570 nm with Labsystems Multiskan EX-Enzyme-linked immunosorbent assay (EX-ELISA) reader against a reagent blank.
The in vitro cytotoxicity tests were evaluated for the gold(I) precursor, labeled as (0) and two synthesized complexes labeled as (1) and (2)against three human cancer cell lines, MCF7, HeLa and A549 using MTT assay. The dose dependent cytotoxic effect was obtained by the stipulated increase in concentrations of complexes (0), (1) and (2) against the fixed number of human cancer cells. […] FIG. 3 is a graph of the in vitro cytotoxic effect of series of concentrations of compound (0) on MCF7 cell line. […]

[4] abbreviates: concentration 3.12 (title μM, head iM).
[5] abbreviates: concentration 6.25 (title μM, head iM).
Where [6] appears, read: concentration 12.5 (title μM, head iM).
Where [7] appears, read: concentration 25 (title μM, head iM).
Where [8] appears, read: concentration 50 (title μM, head iM).

In general, IC50 refers to the point on the concentration scale where inhibition reaches its midpoint. With `CC(C)(C)P(C(C)(C)C)C(C)(C)C.[Cl][Au]` [Complex (0), [Au{P(t-Bu)3}(Cl)], reference compound], the IC50 in data set [1] was 14.3 µM; in data set [2], 16 µM; in data set [3], 16.7 µM. For the same compound, the “percent viability of HeLa” value in data set [2] (setting [4]) was found to be 93.6 ± 2.4%; in data set [2] (setting [5]), 89.5 ± 2.3%; in data set [2] (setting [6]), 81.9 ± 1.9%; in data set [2] (setting [7]), 27.3 ± 1.5%; in data set [2] (setting [8]), 12.4 ± 1.1%.

With `CN(C)C(=S)[S][Au][PH](C(C)(C)C)(C(C)(C)C)C(C)(C)C` [Complex (1), [Au{P(t-Bu)3}(S2CN(CH3)2)]], the IC50 in data set [1] stood at 26.9 µM; in data set [2], 2.07 µM; in data set [3], 21.1 µM. Moreover, the “cytotoxic effects on HeLa cell line compared with Auranofin” value in data set [2] is “better than Auranofin”. The “percent viability of HeLa” value is 50.6 ± 1.5% in data set [2] (setting [4]); 34.4 ± 0.9% in data set [2] (setting [5]); 19.5 ± 1.4% in data set [2] (setting [6]); 15.3 ± 1.1% in data set [2] (setting [7]); 8.7 ± 1.2% in data set [2] (setting [8]).

As for `CCN(CC)C(=S)[S][Au][PH](C(C)(C)C)(C(C)(C)C)C(C)(C)C` [Complex (2), [Au{P(t-Bu)3}(S2CN(C2H5)2)]], the IC50 in data set [1] stood at 19.4 µM; in data set [2] it was 3.21 µM; in data set [3], 16 µM. Further, the “cytotoxic effects on HeLa cell line compared with Auranofin” value in data set [2] is listed as “better than Auranofin”. For the same compound, the “percent viability of HeLa” value in data set [2] (setting [4]) was determined as 53.9 ± 1.9%; in data set [2] (setting [5]), 38.6 ± 1.2%; in data set [2] (setting [6]) it was 27.9 ± 1.0%; in data set [2] (setting [7]), 22.9 ± 1.2%; in data set [2] (setting [8]) it was 9.41 ± 1.16%.

For the origin of these results see patent US9492465B2, “Gold(I) complexes with t-butyl phosphine and dialkyl dithiocarbamate ligands” (KING FAHD UNIVERSITY OF PETROLEUM AND MINERALS, priority 2014, dated 2016).
